ER-phagy suppression data for 15 compounds are collected here from ChEMBL document CHEMBL5724696, “Autophagy assay results for EUbOPEN Chemogenomics Library” (2024).

“And” between values parts separate entries of the source, which are not always exact repeats. Equal values may be shown once.

For experiment [1], the system named is U2OS. Nature of the experiment: (§1) Here: values are normalized to the positive (DMSO; basel flux = defined as 100% suppression) and negative (250nM Torin1; mTOR inhibitor; maximal inducer of autophagy defined as 0% suppression) control compounds and represented as % of ER-phagy suppression. […] The impact of autophagy induction on cells is complex and depends on the affected target. […] Of note, treatment concentrations may be sub-optimal for specific compounds, leading to false negative annotations. In kind it is functional, Homo sapiens. To be noted: Compound Concentration 1 uM, Culturing Media DMEM, 1 % Penicillin/Streptomycin, 10% Fetal bovin serum Add-On: blasticidin, Screening Media Control DMEM, 10% Fetal bovin serum Add-On: 1 µg/ml Doxycyclin, Screening Media Samples DMEM.

Experiment [2] deals with U2OS. The description is as §1. In kind it is functional, Homo sapiens. As to conditions: Compound Concentration 1 uM, Culturing Media DMEM, 1 % Penicillin/Streptomycin, 10% Fetal bovin serum Add-On: blasticidin, Screening Media Control DMEM, 10% Fetal bovin serum Add-On: 1 µg/ml Doxycyclin, Screening Media Samples DMEM. This is another data set of the same source.
[3] abbreviates: Timepoint 12 hours, 10% Fetal bovin serum Add-On: 1 µg/ml Doxycyclin 250nM Torin1.
The mark [4] stands for this setting: Timepoint 24 hours, 10% Fetal bovin serum Add-On: 1 µg/ml Doxycyclin 250nM Torin1.
Setting [5] is: Timepoint 36 hours, 10% Fetal bovin serum Add-On: 1 µg/ml Doxycyclin 250nM Torin1.
[6] abbreviates: Timepoint 54 hours, 10% Fetal bovin serum Add-On: 1 µg/ml Doxycyclin 250nM Torin1.
[7] abbreviates: Timepoint 60 hours, 10% Fetal bovin serum Add-On: 1 µg/ml Doxycyclin 250nM Torin1.
Setting [8] is: Timepoint 12 hours, 10% Fetal bovin serum Add-On: 1 µg/ml Doxycyclin 250nM Torin1, 12 h, 1 µM.
[9] abbreviates: Timepoint 24 hours, 10% Fetal bovin serum Add-On: 1 µg/ml Doxycyclin 250nM Torin1, 24 h, 1 µM.
[10] abbreviates: Timepoint 36 hours, 10% Fetal bovin serum Add-On: 1 µg/ml Doxycyclin 250nM Torin1, 36 h, 1 µM.
Where [11] appears, read: Timepoint 54 hours, 10% Fetal bovin serum Add-On: 1 µg/ml Doxycyclin 250nM Torin1, 54 h, 1 µM.
[12] abbreviates: Timepoint 60 hours, 10% Fetal bovin serum Add-On: 1 µg/ml Doxycyclin 250nM Torin1, 60 h, 1 µM.

As for `OCCn1cc(-c2ccc3c(c2)CCC3=NO)c(-c2ccncc2)n1`, the ER-phagy suppression in experiment [1] (setting [3]) is on record as -23.6151%; in experiment [1] (setting [4]), -59.1263%; in experiment [1] (setting [5]), -53.5237%; in experiment [1] (setting [6]) it was -39.7477%; in experiment [2] (setting [3]) it was 13.4101%; in experiment [2] (setting [4]), 0.6971%. In addition, the ER-phagy suppression was -0.91% in experiment [2] (setting [5]) and 0.4621% in experiment [2] (setting [7]).

For `CCN(CCO)CCCOc1ccc2c(Nc3cc(CC(=O)Nc4cccc(F)c4)[nH]n3)ncnc2c1` [DEFOSBARASERTIB], the ER-phagy suppression was -1.417% and 3.579% in experiment [1] (setting [8]); -12.3988% and -4.272% in experiment [1] (setting [9]); -12.8875% and -11.7769% in experiment [1] (setting [10]); -17.4995% and -20.4042% in experiment [1] (setting [11]); 14.0476% and -1.761% in experiment [2] (setting [12]).

Consider `COc1cc(N(C)c2ccnc3ccc(C(F)(F)F)cc23)cc(OC)c1OC`, for which the ER-phagy suppression was 8.809% in experiment [1] (setting [3]); -16.6853% in experiment [1] (setting [4]); -22.3535% in experiment [1] (setting [5]); -19.7391% in experiment [1] (setting [6]); -0.7345% in experiment [2] (setting [3]); 0.8414% in experiment [2] (setting [4]). The ER-phagy suppression in experiment [2] (setting [5]) was -10.6797%; in experiment [2] (setting [7]), -10.2278%.

Consider `CNC(=O)c1ccc(Nc2ncc(C(F)(F)F)c(NCc3nccnc3N(C)S(C)(=O)=O)n2)cc1` [DEFACTINIB], for which the ER-phagy suppression in experiment [1] (setting [8]) is 6.334% and 17.6982%; in experiment [1] (setting [9]), -6.042% and 9.811%; in experiment [1] (setting [10]), -8.211% and 10.8271%; in experiment [2] (setting [8]), -10.5841% and -8.687%; in experiment [2] (setting [10]), -22.8017% and 1.862%; in experiment [2] (setting [12]), -7.812% and 1.51%.

In the case of `O=C(NCCCN1CCOC1=O)c1cnc(NCc2cc(Br)ccc2Br)nc1NC1CCCC1`, the ER-phagy suppression in experiment [1] (setting [3]) is on record as -5.816%; in experiment [1] (setting [4]), -18.1911%; in experiment [1] (setting [5]) it was -20.9165%; in experiment [1] (setting [6]) it was -12.0292%; in experiment [2] (setting [3]) it was -10.749%; in experiment [2] (setting [4]) it was -21.0292%. The ER-phagy suppression in experiment [2] (setting [5]) is -39.1494%; in experiment [2] (setting [7]), -40.5418%.

Regarding `C[C@@H](NC(=O)Nc1cc2[nH]ncc2c(CO)n1)c1ccccc1` [ERKi], the ER-phagy suppression in experiment [1] (setting [3]) is 6.504%; in experiment [1] (setting [4]), -3.07%; in experiment [1] (setting [5]), -4.694%; in experiment [1] (setting [6]), -0.09872%; in experiment [2] (setting [3]), -20.6264%; in experiment [2] (setting [4]), 1.384%. Besides, the results for the ER-phagy suppression in experiment [2] (setting [5]) and in experiment [2] (setting [7]) were -7.522% and -12.4094%, respectively.

For `O=C(O)[C@]1(Cc2cccc(Nc3nccs3)n2)CC[C@@H](Oc2cccc(Cl)c2F)CC1` [MK-5108], the ER-phagy suppression in experiment [1] (setting [8]) is -21.8455% and -0.3871%; in experiment [1] (setting [9]), -36.5962% and -17.27%; in experiment [1] (setting [10]) it was -35.461% and -24.0375%; in experiment [1] (setting [11]) it was -31.7232% and -12.4423%; in experiment [2] (setting [8]) it was 0.5036% and -6.3832%; in experiment [2] (setting [9]), -3.155% and -11.7886%. Further, the ER-phagy suppression in experiment [2] (setting [10]) is -0.3659% and -12.8084%; in experiment [2] (setting [12]) it was 7.072% and -14.3125%.

For the compound `CC(=O)Nc1ccc2ccn(-c3cc(NC4CC4)n4ncc(C#N)c4n3)c2c1`, the ER-phagy suppression in experiment [1] (setting [3]) was 46.1231%; in experiment [1] (setting [4]) it was 56.6622%; in experiment [1] (setting [5]) it was 75.9855%; in experiment [1] (setting [6]), 85.4784%; in experiment [2] (setting [3]) it was 13.0338%; in experiment [2] (setting [4]), 48.9829%. For the same compound, the ER-phagy suppression is 66.3165% in experiment [2] (setting [5]) and 75.9257% in experiment [2] (setting [7]).

Regarding `CN1CCN(Cc2cc(NC(=O)c3ccc4c(c3)CN(c3ccccc3)CC4)cc(C(F)(F)F)c2)CC1`, the ER-phagy suppression was 8.416% in experiment [1] (setting [3]); 6.996% in experiment [1] (setting [4]); 11.6775% in experiment [1] (setting [5]); 26.4341% in experiment [1] (setting [6]); -14.1546% in experiment [2] (setting [3]); -18.3974% in experiment [2] (setting [4]). The ER-phagy suppression is on record as -8.125% in experiment [2] (setting [5]) and -14.9547% in experiment [2] (setting [7]).

`CN(c1ncccc1CNc1nc(Nc2ccc3c(c2)CC(=O)N3)ncc1C(F)(F)F)S(C)(=O)=O.O=S(=O)(O)c1ccccc1`: the ER-phagy suppression in experiment [1] (setting [3]) is 6.672%; in experiment [1] (setting [4]) it was -24.1053%; in experiment [1] (setting [5]), -34.2095%; in experiment [1] (setting [6]), -20.8605%; in experiment [2] (setting [3]), -10.0797%; in experiment [2] (setting [4]) it was -6.87%. Further, the ER-phagy suppression in experiment [2] (setting [5]) came out at 0.4518%; in experiment [2] (setting [7]), 0.1589%.

Consider `COc1cc(C2c3cc4c(cc3[C@H](O)[C@H]3COC(=O)[C@@H]23)OCO4)cc(OC)c1OC` (stereo not given in full), for which the ER-phagy suppression was 19.9758% in experiment [1] (setting [3]); 6.76% in experiment [1] (setting [4]); 5.125% in experiment [1] (setting [5]); 8.089% in experiment [1] (setting [6]); 13.7164% in experiment [2] (setting [3]); -2.596% in experiment [2] (setting [4]). The ER-phagy suppression in experiment [2] (setting [5]) is recorded as 7.675%; in experiment [2] (setting [7]) it was 9.356%.

As for `C[C@H](NC(=O)Nc1cc2[nH]ncc2c(CO)n1)c1ccccn1` [ERKi-NC], the ER-phagy suppression was 16.3207% in experiment [1] (setting [3]); -4.124% in experiment [1] (setting [4]); -11.6627% in experiment [1] (setting [5]); -9.3851% in experiment [1] (setting [6]); -23.4889% in experiment [2] (setting [3]); -22.8439% in experiment [2] (setting [4]). In addition, the ER-phagy suppression is on record as -26.5362% in experiment [2] (setting [5]) and -20.3879% in experiment [2] (setting [7]).

On to `Cl.NC(=O)c1cnc(N[C@@H]2CCCC[C@@H]2N)nc1Nc1cccc(-n2nccn2)c1`, for which the ER-phagy suppression in experiment [1] (setting [3]) was 27.5492%; in experiment [1] (setting [4]), 18.4362%; in experiment [1] (setting [5]), 21.4313%; in experiment [1] (setting [6]), 34.0409%; in experiment [2] (setting [3]), 9.977%; in experiment [2] (setting [4]), 25.4122%. For the same compound, the ER-phagy suppression in experiment [2] (setting [5]) is 28.6706%; in experiment [2] (setting [7]), 31.7231%.

In the case of `Cc1cn(-c2cc(NC(=O)c3ccc4c(c3)CN(c3cncnc3)C[C@@H]4C)cc(C(F)(F)F)c2)cn1`, the ER-phagy suppression in experiment [1] (setting [3]) is listed as -11.2753%; in experiment [1] (setting [4]), -32.01%; in experiment [1] (setting [5]), -29.9662%; in experiment [1] (setting [6]) it was -28.2988%; in experiment [2] (setting [3]), -5.176%; in experiment [2] (setting [4]), -7.191%. For the same compound, the ER-phagy suppression in experiment [2] (setting [5]) is -10.2809%; in experiment [2] (setting [7]), -23.2702%.

As for `CC(=O)Nc1cccc(-n2c(=O)n(C3CC3)c(=O)c3c(Nc4ccc(I)cc4F)n(C)c(=O)c(C)c32)c1` [TRAMETINIB], the ER-phagy suppression in experiment [1] (setting [3]) is listed as -5.637%; in experiment [1] (setting [4]), 10.9132%; in experiment [1] (setting [5]), 18.5776%; in experiment [1] (setting [6]), 29.3457%; in experiment [2] (setting [3]), 22.5636%; in experiment [2] (setting [4]) it was 31.8836%. Moreover, the ER-phagy suppression in experiment [2] (setting [5]) was 34.8635%; in experiment [2] (setting [7]) it was 24.7233%.
